Results on 22 compounds are retold here after patent publication US20250346593A1, “IMIDAZO(1,2-1)PYRIDINE DERIVATIVES AS RIPK2 INHIBITORS” (Interline Therapeutics, Inc., priority 2022, published 2025).

For test [1], the system named is NF-κB pathway (SEAP) in THP1-Dual cells. Briefly: THP-1 Dual cell SEAP assay (L18-MDP stimulated). It counts as cell-based. As to conditions: Homo sapiens, THP1-Dual, read-out: NFkB THP1 IC50.
Test [2] addresses GST-RIPK2 fusion protein (human RIPK2 amino acids 1-310) (Homo sapiens (Human), UniProt O43353). The test can be described thus: RIPK2 binding competition assay (TR-FRET, Tracer 199). (In general: In TR-FRET formats the signal depends on donor and acceptor labels being close together.)
Setting [3] is: read-out: RIPK2 IC50, RIPK2 binding competition assay.

pIC50: −log10 of the molar value. Like-named read-outs stand apart in the source and are kept apart here.

Chain of GST-RIPK2 fusion protein (human RIPK2 amino acids 1-310) (O43353 1-310): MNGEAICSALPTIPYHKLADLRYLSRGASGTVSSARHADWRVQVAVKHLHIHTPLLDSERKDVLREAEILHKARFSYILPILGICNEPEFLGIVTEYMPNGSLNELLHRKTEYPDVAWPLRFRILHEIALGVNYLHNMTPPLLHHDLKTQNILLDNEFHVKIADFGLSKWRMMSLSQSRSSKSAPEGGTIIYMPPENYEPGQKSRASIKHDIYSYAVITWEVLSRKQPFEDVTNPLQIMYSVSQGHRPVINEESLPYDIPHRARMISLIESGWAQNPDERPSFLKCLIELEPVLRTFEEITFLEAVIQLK

`CCCS(=O)(=O)Nc1cc(-c2cnc3cc(OC)c(S(=O)(=O)C(C)(C)C)cn23)ccc1OC(F)(F)F` [Example 134, N-{5-[7-methoxy-6-(2-methylpropane-2-sulfonyl)imidazo[1,2-a]pyridin-3-yl]-2-(trifluoromethoxy)phenyl}propane-1-sulfonamide]: the pIC50 (in general, the negative decadic logarithm of the IC50, by convention in mol/L) was 6.00 to 6.60 in test [1] and 7.70 to 8.60 in test [2].
As for `COc1cc2ncc(-c3cc(F)c(OC)c(NCCN)c3)n2cc1S(=O)(=O)C(C)(C)C` [Example 329, N1-(5-(6-(tert-butylsulfonyl)-7-methoxyimidazo[1,2-a]pyridin-3-yl)-3-fluoro-2-methoxyphenyl) ethane-1,2-diamine], the pIC50 is 6.00 to 6.60 in test [1] and 7.70 to 8.60 in test [2].
The like results for `CCCS(=O)(=O)Nc1cccc(-c2cnc3cc(OC)c(S(=O)(=O)C(C)(C)C)cn23)c1` [Example 269, N-(3-(6-(tert-butylsulfonyl)-7-methoxyimidazo[1,2-a]pyridin-3-yl)phenyl)propane-1-sulfonamide] were, in that order, 6.00 to 6.60 and 8.60 to 9.00.
Taken in the same sequence, the figures for `COc1cc2ncc(-c3cc(F)c(N)nc3OC)n2cc1S(=O)(=O)C(C)(C)C` [Example 106, 5-(6-(tert-butylsulfonyl)-7-methoxyimidazo[1,2-a]pyridin-3-yl)-3-fluoro-6-methoxypyridin-2-amine] were 6.00 to 6.60 and 7.70 to 8.60.
Turning to `COc1cc2ncc(-c3csc(N)n3)n2cc1S(=O)(=O)C(C)(C)C` [Example 165, 4-(6-(tert-butylsulfonyl)-7-methoxyimidazo[1,2-a]pyridin-3-yl)thiazol-2-amine], the negative logarithm of the IC50 (pIC50) in test [1] was 6.00 to 6.60; in test [2] it was 7.70 to 8.60.
With `COc1cc2ncc(-c3cc(F)nc(NCC4CCNC(=O)C4)c3)n2cc1S(=O)(=O)C(C)(C)C` (centres unmarked) [Example 188, 4-(((4-(6-(tert-butylsulfonyl)-7-methoxyimidazo[1,2-a]pyridin-3-yl)-6-fluoropyridin-2-yl)amino)methyl) piperidin-2-one], the negative-log IC50 (pIC50) in test [1] was over 7.30; in test [2] (setting [3]), over 9.00.
With `CCCS(=O)(=O)Nc1cc(-c2cnc3cc(OC)c(S(=O)(=O)C(C)(C)C)cn23)cnc1OC` [Example 265, N-(5-(6-(tert-butylsulfonyl)-7-methoxyimidazo[1,2-a]pyridin-3-yl)-2-methoxypyridin-3-yl)propane-1-sulfonamide], the pIC50 in test [1] is 6.60 to 7.30; in test [2], 7.70 to 8.60.
Taken in the same sequence, the figures for `COc1cc2ncc(-c3cc(F)nc(NCCN4CCCC4=O)c3)n2cc1S(=O)(=O)C(C)(C)C` [Example 210, 1-(2-((4-(6-(tert-butylsulfonyl)-7-methoxyimidazo[1,2-a]pyridin-3-yl)-6-fluoropyridin-2-yl)amino)ethyl) pyrrolidin-2-one] were 6.60 to 7.30 and 8.60 to 9.00.
Turning to `COc1cc2ncc(-c3cc(F)nc(NCC4CCN(C(C)=O)CC4)c3)n2cc1S(=O)(=O)C(C)(C)C` [Example 317, 1-(4-(((4-(6-(tert-butylsulfonyl)-7-methoxyimidazo[1,2-a]pyridin-3-yl)-6-fluoropyridin-2-yl)amino)methyl)piperidin-1-yl)ethan-1-one], the values for the pIC50 in test [1] and in test [2] (setting [3]) were over 7.30 and over 9.00, respectively.
On to `COc1cc2ncc(-c3cnc(N)c(CO)c3)n2cc1S(=O)(=O)C(C)(C)C` [Example 92, (2-amino-5-(6-(tert-butylsulfonyl)-7-methoxyimidazo[1,2-a]pyridin-3-yl)pyridin-3-yl)methanol], for which the negative logarithm of the IC50 (pIC50) in test [1] is under 6.00; in test [2] (setting [3]) it was under 7.70.
For the compound `COc1cn2ncc(-c3cc(Cl)c(N)nc3F)c2cc1S(=O)(=O)C(C)(C)C` [Example 105, 5-(5-(tert-butylsulfonyl)-6-methoxypyrazolo[1,5-a]pyridin-3-yl)-3-chloro-6-fluoropyridin-2-amine], the negative-log IC50 (pIC50) in test [1] is 6.60 to 7.30; in test [2], 7.70 to 8.60.
In the case of `COc1cc2ncc(-c3cnc(N)c(C(F)(F)F)c3)n2cc1S(=O)(=O)C(C)(C)C` [Example 19, 5-(6-(tert-butylsulfonyl)-7-methoxyimidazo[1,2-a]pyridin-3-yl)-3-(trifluoromethyl)pyridin-2-amine], the negative logarithm of the IC50 (pIC50) in test [1] was under 6.00; in test [2] (setting [3]), under 7.70.
Turning to `CCCS(=O)(=O)Nc1cc(-c2cnc3cc(OC)c(S(=O)(=O)C(C)(C)C)cn23)cc(OC(F)(F)F)c1F` [Example 138, N-{2-fluoro-5-[7-methoxy-6-(2-methylpropane-2-sulfonyl)imidazo[1,2-a]pyridin-3-yl]-3-(trifluoromethoxy)phenyl}propane-1-sulfonamide], the pIC50 was under 6.00 in test [1] and under 7.70 in test [2] (setting [3]).
As for `COc1cc2ncc(-c3cc(N)cc(C#N)c3)n2cc1S(=O)(=O)C(C)(C)C` [Example 41, 3-amino-5-(6-(tert-butylsulfonyl)-7-methoxyimidazo[1,2-a]pyridin-3-yl)benzonitrile], the pIC50 in test [1] is 6.60 to 7.30; in test [2] it was 7.70 to 8.60.
Taken in the same sequence, the figures for `CCCS(=O)(=O)Nc1cc(-c2cnc3cc(OC)c(S(=O)(=O)C(C)(C)C)cn23)cc(F)c1C` [Example 262, N-(5-(6-(tert-butylsulfonyl)-7-methoxyimidazo[1,2-a]pyridin-3-yl)-3-fluoro-2-methylphenyl)propane-1-sulfonamide] were 6.00 to 6.60 and 7.70 to 8.60.
In the case of `COc1cc2ncc(-c3cc(N)c(OC)c(C#N)c3)n2cc1S(=O)(=O)C(C)(C)C` [Example 51, 3-amino-5-(6-(tert-butylsulfonyl)-7-methoxyimidazo[1,2-a]pyridin-3-yl)-2-methoxybenzonitrile], the negative-log IC50 (pIC50) in test [1] is under 6.00; in test [2] (setting [3]) it was under 7.70.
The like results for `COc1cc2ncc(-c3ccc(N)nc3)n2cc1S(=O)(=O)C(C)(C)C` [Example 15, 5-(6-(tert-butylsulfonyl)-7-methoxyimidazo[1,2-a]pyridin-3-yl)pyridin-2-amine] were, in that order, under 6.00 and under 7.70.
The like results for `CCCS(=O)(=O)Nc1nc(-c2cnc3cc(OC)c(S(=O)(=O)C(C)(C)C)cn23)ccc1OC(F)(F)F` [Example 313, N-(6-(6-(tert-butylsulfonyl)-7-methoxyimidazo[1,2-a]pyridin-3-yl)-3-(trifluoromethoxy)pyridin-2-yl)propane-1-sulfonamide] were, in that order, under 6.00 and under 7.70.
Taken in the same sequence, the figures for `COc1cc2ncc(-c3cc(NCCCO)ncc3C)n2cc1S(=O)(=O)C(C)(C)C` [Example 309, 3-({4-[7-Methoxy-6-(2-methylpropane-2-sulfonyl)imidazo[1,2-a]pyridin-3-yl]-5-methylpyridin-2-yl}amino)propan-1-ol] were under 6.00 and under 7.70.
Take `COc1cc(N)cc(-c2cnc3cc(OC)c(S(=O)(=O)C(C)(C)C)cn23)n1` [Example 126, 2-(6-(tert-butylsulfonyl)-7-methoxyimidazo[1,2-a]pyridin-3-yl)-6-methoxypyridin-4-amine]: the negative-log IC50 (pIC50) was under 6.00 in test [1] and under 7.70 in test [2] (setting [3]).
Taken in the same sequence, the figures for `COc1cc2ncc(-c3ccc(N(C)C)nc3)n2cc1S(=O)(=O)C(C)(C)C` [Example 16, 5-(6-(tert-butylsulfonyl)-7-methoxyimidazo[1,2-a]pyridin-3-yl)-N,N-dimethylpyridin-2-amine] were under 6.00 and under 7.70.
Take `COc1cc2ncc(-c3cccc(N)c3)n2cc1S(=O)(=O)C(C)(C)C` [Example 36, 3-(6-(tert-butylsulfonyl)-7-methoxyimidazo[1,2-a]pyridin-3-yl)aniline]: the negative-log IC50 (pIC50) in test [1] is under 6.00; in test [2] (setting [3]), under 7.70.
